In paper PMC3959744 (Journal of medicinal chemistry, 2013):
Where a chain is given by its changes, count along the chain named. Several values for one entry are separate records, joined by “and”; a condition that tells them apart may be missing. Identical values can stand only once. Entries after “also recorded” stand apart in the source; their conditions may differ.

Assays:
[1] = system: DHT mediated AR transcription in LNCaP cells; assay: Transcriptional activation luciferase assay; format: cell-based, human; conditions: 10 μM compound, 10 nM DHT, 24 h
[2] = biological target: T1, full-length and truncated AR (AR-3) (Homo sapiens, UniProt P10275); assay: Western blot analysis of fAR and tAR-3 expression in CWR22Rv1 cells; conditions: 15 μM, 24 h
T1 sequence (P10275 1-920): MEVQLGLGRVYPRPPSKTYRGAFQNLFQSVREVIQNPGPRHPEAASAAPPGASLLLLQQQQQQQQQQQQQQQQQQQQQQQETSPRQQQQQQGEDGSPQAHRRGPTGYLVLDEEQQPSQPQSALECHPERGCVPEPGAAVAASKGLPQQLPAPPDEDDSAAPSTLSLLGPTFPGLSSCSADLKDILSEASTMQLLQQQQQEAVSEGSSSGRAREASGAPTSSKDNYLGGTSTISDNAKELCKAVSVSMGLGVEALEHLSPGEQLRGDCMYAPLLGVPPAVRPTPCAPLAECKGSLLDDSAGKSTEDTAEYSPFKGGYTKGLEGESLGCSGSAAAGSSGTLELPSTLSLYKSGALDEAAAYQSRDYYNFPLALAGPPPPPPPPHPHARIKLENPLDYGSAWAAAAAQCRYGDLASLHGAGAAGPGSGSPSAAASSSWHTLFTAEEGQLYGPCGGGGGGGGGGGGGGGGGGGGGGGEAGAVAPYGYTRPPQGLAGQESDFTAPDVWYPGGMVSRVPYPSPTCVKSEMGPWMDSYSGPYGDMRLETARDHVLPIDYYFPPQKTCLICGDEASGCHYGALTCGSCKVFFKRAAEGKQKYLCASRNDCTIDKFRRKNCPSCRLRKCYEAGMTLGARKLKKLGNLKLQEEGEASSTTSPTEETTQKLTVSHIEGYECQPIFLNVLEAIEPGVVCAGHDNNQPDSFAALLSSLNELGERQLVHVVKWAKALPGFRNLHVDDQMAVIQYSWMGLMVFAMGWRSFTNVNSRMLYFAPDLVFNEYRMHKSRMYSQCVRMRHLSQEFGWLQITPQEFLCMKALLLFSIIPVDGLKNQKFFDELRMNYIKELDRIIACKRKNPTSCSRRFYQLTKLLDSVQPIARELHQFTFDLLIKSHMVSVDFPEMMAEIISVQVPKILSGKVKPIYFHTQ

[3] = Solubility in ethanol or DMSO; format: physicochemical; conditions: prevented biological testing
LNCaP cells = assay: Cell growth inhibition; format: cell-based, human
AR [4] = biological target: T2, AR (Homo sapiens, UniProt P10275, T878A); format: cell-based; conditions: LNCaP cells, 15 μM, 24 h, Western blot
T2 sequence (P10275 1-920 T878A): T1 sequence (P10275 1-920) with T878A

AR [5] = biological target: T2, AR; assay: Immunocytochemical analysis of AR expression in LNCaP cells; conditions: 5 μM, 48 h

Row | Compound | inhibition of DHT mediated transcription [1] | effect on AR protein expression (AR degradation / ARD activity) (AR [4]) | other results
1 | C[C@]12CCC(=NO)C=C1CC[C@@H]1[C@@H]2CC[C@]2(C)C(n3cnc4ccccc43)=CC[C@@H]12 (mixture of isomers) [Compound 36, 3-((EZ)-Hydroximino)-17-(1H-Benzimidazol-1-yl)-androsta-4,16-diene] | 65–100% | – | effect on full-length and truncated AR (AR-3) expression [2]: could degrade both full-length and truncated AR; also recorded: significant down-regulation of both full-length and truncated AR
2 | C[C@]12CC/C(=N\Oc3ccccc3)C=C1CC[C@@H]1[C@@H]2CC[C@]2(C)C(n3cnc4ccccc43)=CC[C@@H]12 (mixture of isomers) [Compound 37, 3-((EZ)-O-Phenyloxime)-17-(1H-Benzimidazol-1-yl)-androsta-4,16-diene] | – | – | solubility in ethanol or DMSO [3]: limited solubility in ethanol or DMSO
3 | CO/N=C1/C=C2CC[C@@H]3[C@H](CC[C@]4(C)C(n5cnc6ccccc65)=CC[C@@H]34)[C@@]2(C)CC1 (mixture of isomers) [Compound 38, 3-((EZ)-O-Methyloxime)-17-(1H-Benzimidazol-1-yl)-androsta-4,16-diene] | 65–100% | – | –
4 | C[C@]12CC/C(=N\OCc3ccccc3)C=C1CC[C@@H]1[C@@H]2CC[C@]2(C)C(n3cnc4ccccc43)=CC[C@@H]12 (mixture of isomers) [Compound 39, 3-((EZ)-(O-Phenylmethyl)oxime)-17-(1H-Benzimidazol-1-yl)-androsta-4,16-diene] | 65–100% | – | –
5 | C[C@]12CC[C@H](O)CC1=CC[C@@H]1[C@@H]2CC[C@]2(C)C(n3cnc4cc(C#N)ccc43)=CC[C@@H]12 [Compound 18, 3β-Hydroxy-17-(5(6)-nitrile-1H-benzimidazol-1-yl)-androsta-5,16-diene] | – | diminished AR down-regulation (ARD) activity | GI50 (LNCaP cells; read-out: GI50, C-17 modified compounds, MTT, 7 days, at least three independent experiments, SEM < 10%): 2810 nM
6 | COc1ccc2ncn(C3=CC[C@H]4[C@@H]5CC=C6C[C@@H](O)CC[C@]6(C)[C@H]5CC[C@]34C)c2c1 [Compound 19, 3β-Hydroxy-17-(6-methoxy-1H-benzimidazol-1-yl)-androsta-5,16-diene] | – | no modulation of ARDA | –
7 | CC(C)CCNCC1=C(n2cnc3ccccc32)[C@@]2(C)CC[C@H]3[C@@H](CC=C4C[C@@H](O)CC[C@@]43C)[C@@H]2C1 [Compound 25, 3β-Hydoxy-17-(1H-benzimidazol-1-yl)-16-((isopentylamino)methyl)-androsta-5,16-diene] | 65–100% | significant loss of ARD | –
8 | C[C@]12CC[C@H](O)CC1=CC[C@@H]1[C@@H]2CC[C@]2(C)C(n3cnc4ccccc43)=C(CNc3ccccc3)C[C@@H]12 [Compound 28, 3β-Hydoxy-17-(1H-benzimidazol-1-yl)-16-((phenylamino)methyl)-androsta-5,16-diene] | 65–100% | significant loss of ARD | –
9 | COc1ccc(NCC2=C(n3cnc4ccccc43)[C@@]3(C)CC[C@H]4[C@@H](CC=C5C[C@@H](O)CC[C@@]54C)[C@@H]3C2)cc1OC [Compound 31, 3β-Hydoxy-17-(1H-benzimidazol-1-yl)-16-(((3,4-dimethoxyphenyl)amino)methyl)-androsta-5,16-diene] | – | significant loss of ARD | effect on full-length and truncated AR (AR-3) expression [2]: significant down-regulation of both full-length and truncated AR
10 | C[C@]12CC[C@H](OS(C)(=O)=O)CC1=CC[C@@H]1[C@@H]2CC[C@]2(C)C(n3cnc4ccccc43)=CC[C@@H]12 [Compound 34, 3β-Mesyloxy-17-(1H-benzimidazol-1-yl)-androsta-5,16-dien] | 65–100% | – | –
11 | C[C@]12CC[C@H](OC(=O)c3ccccn3)CC1=CC[C@@H]1[C@@H]2CC[C@]2(C)C(n3cnc4ccccc43)=CC[C@@H]12 [Compound 41, 3β-(Pyridine-2-carboxylate)-17-(1H-benzimidazol-1-yl)-androsta-5,16-diene] | – | – | solubility in ethanol or DMSO [3]: limited solubilities in ethanol or DMSO
12 | C[C@]12CC[C@H](OC(=O)c3cccnc3)CC1=CC[C@@H]1[C@@H]2CC[C@]2(C)C(n3cnc4ccccc43)=CC[C@@H]12 [Compound 42, 3β-(Pyridine-3-carboxylate)-17-(1H-benzimidazol-1-yl)-androsta-5,16-diene] | – | – | solubility in ethanol or DMSO [3]: limited solubilities in ethanol or DMSO
13 | C[C@]12CC[C@H](OC(=O)c3ccncc3)CC1=CC[C@@H]1[C@@H]2CC[C@]2(C)C(n3cnc4ccccc43)=CC[C@@H]12 [Compound 43, 3β-(Pyridine-4-carboxylate)-17-(1H-benzimidazol-1-yl)-androsta-5,16-diene] | – | – | effect on full-length and truncated AR (AR-3) expression [2]: could degrade both full-length and truncated AR
14 | C[C@]12CC[C@H](OC(=O)n3ccnc3)CC1=CC[C@@H]1[C@@H]2CC[C@]2(C)C(n3cnc4ccccc43)=CC[C@@H]12 [Compound 47, 3β-(1H-Imidazole-1-carboxylate)-17-(1H-benzimidazol-1-yl)-androsta-5,16-diene] | 65–100% | most potent | fold more potent than compound 5, anti-proliferative activity (LNCaP cells; from GI50): 4 fold and ~ 4 fold; AR levels in the nucleus (AR [5]): significant decrease in AR levels in the nucleus; effect on full-length and truncated AR (AR-3) expression [2]: could degrade both full-length and truncated AR; also recorded: significant down-regulation of both full-length and truncated AR
15 | Cc1nccn1C(=O)O[C@H]1CC[C@@]2(C)C(=CC[C@@H]3[C@@H]2CC[C@]2(C)C(n4cnc5ccccc54)=CC[C@@H]32)C1 [Compound 48, 3β-(2-Methyl-1H-imidazole-1-carboxylate)-17-(1H-benzimidazol-1-yl)-androsta-5,16-diene] | – | – | fold decrease in anti-proliferative activity relative to 47 (LNCaP cells; from GI50): 6 fold
16 | C[C@]12CC[C@H](OC(=O)n3cncn3)CC1=CC[C@@H]1[C@@H]2CC[C@]2(C)C(n3cnc4ccccc43)=CC[C@@H]12 [Compound 49, 3β-(1H-1,2,4-Triazole-1-carboxylate)-17-(1H-benzimidazol-1-yl)-androsta-5,16-diene] | – | significant up-regulation of AR | –
